What was measured:
RBP4 [1] = molecular target: T1, RBP4 (Homo sapiens (Human), UniProt P02753); assay: Scintillation proximity (SPA) RBP4 binding assay; conditions: 10 nM 3H-Retinol, 50 nM biotinylated RBP4
Method: Scintillation Proximity RBP4 Binding Assay
Untagged human RBP4 purified from urine of tubular proteinuria patients was purchased from Fitzgerald Industries International. It was biotinylated using the EZ-Link Sulfo-NHS-LC-Biotinylation kit from Pierce following the manufacturer's recommendations. Binding experiments were performed in 96-well plates (OptiPlate, PerkinElmer) in a final assay volume of 100 μl per well in SPA buffer (1×PBS, pH 7.4, 1 mM EDTA, 0.1% BSA, 0.5% CHAPS). The reaction mix contained 10 nM ^3H-Retinol (48.7 Ci/mmol; PerkinElmer), 0.3 mg/well Streptavidin-PVT beads, 50 nM biotinylated RBP4 and a test compound. Nonspecific binding was determined in the presence of 20 μM of unlabeled retinol. The reaction mix was assembled in the dark under dim red light. The plates were sealed with clear tape (TopSeal-A: 96-well microplate, PerkinElmer), wrapped in the aluminum foil, and allowed to equilibrate 6 hours at room temperature followed by overnight incubation at +4° C. Radiocounts were measured using a TopCount NXT counter (Packard Instrument Company).

RBP4-TTR interaction [2] = molecular target: T2, RBP4-TTR interaction (Homo sapiens (Human), UniProt P02753); assay: TR-FRET (HTRF) assay for retinol-induced RBP4-TTR interaction; format: biochemical; conditions: in the presence of 1 μM retinol; read-out: HTRF assay for antagonists of RBP4-TTR interaction: IC50
Text: Binding of a desired RBP4 antagonist displaces retinol and induces hindrance for RBP4-TTR interaction resulting in the decreased FRET signal (FIG. 7). Bacterially expressed MBP-RBP4 and untagged TTR were used in this assay. […] Following cell lysis, recombinant RBP4 was purified from the soluble fraction using the ACTA FPLC system (GE Healthcare) equipped with the 5-ml the MBP Trap HP column. Human untagged TTR was purchased from Calbiochem. Untagged TTR was labeled directly with Eu^3+ Cryptate-NHS using the HTRF Cryptate Labeling kit from CisBio following the manufacturer's recommendations. HTRF assay was performed in white low volume 384 well plates (Greiner-Bio) in a final assay volume of 16 μl per well. The reaction buffer contained 10 mM Tris-HCl pH 7.5, 1 mM DTT, 0.05% NP-40, 0.05% Prionex, 6% glycerol, and 400 mM KF. […] Titration of test compounds in this assay was conducted in the presence of 1 μM retinol. All reactions were assembled in the dark under dim red light and incubated overnight at +4° C. wrapped in aluminum foil. TR-FRET signal was measured in the SpectraMax M5e Multimode Plate Reader (Molecular Device). […] The TR-FRET signal was expressed as the ratio of fluorescence intensity: Flu665/Flu620×10,000.

RBP4 [3] = molecular target: T1, RBP4; conditions: cited from earlier work
RBP4-TTR interaction [4] = molecular target: T2, RBP4-TTR interaction; conditions: cited from earlier work
serum RBP4 and retinol = serum RBP4 and retinol (Rattus norvegicus (Rat), UniProt P04916); conditions: in vivo; cited from earlier work
[5] = test system: ocular all-trans retinol uptake; conditions: in vivo; cited from earlier work
Abca4−/− mice = conditions: animal model of excessive bisretinoid accumulation; cited from earlier work
[6] = test system: many cell types, including the retinal pigment epithelium cells; conditions: cited from earlier work
[7] = in vivo; cited from earlier work

SMILES | IC50 (RBP4 [1]) [nM] | IC50 (RBP4-TTR interaction [2]) [nM] | binding to RBP4 (RBP4 [3]) | displacement of all-trans retinol from RBP4 (RBP4 [3]) | disruption of RBP4-TTR interaction (RBP4-TTR interaction [4]) | serum RBP4 and retinol (serum RBP4 and retinol) | ocular all-trans retinol uptake and visual cycle [5] | A2E production (Abca4−/− mice) | induction of apoptosis [6] | teratogenicity [7]
COCCN1CCc2c(C(=O)N3CCC(c4cccc(F)c4C(F)(F)F)CC3)n[nH]c2C1 [Compound 73] | 8.5 | 30.6 | – | – | – | – | – | – | – | –
CC1=C(/C=C/C(C)=C/C=C/C(C)=C/C(=O)Nc2ccc(O)cc2)C(C)(C)CCC1 [fenretinide, N-(4-hydroxy-phenyl)retinamide] | – | – | bind to RBP4 | displace all-trans retinol from RBP4 | disrupt the RBP4-TTR interaction | reduce serum RBP4 and retinol | inhibit ocular all-trans retinol uptake and slow down the visual cycle | reduced A2E production | extremely active inducer of apoptosis | teratogenic
